Assay results published in US8846933B2, “N-link hydroxamic acid derivatives useful as antibacterial agents” (Pfizer Inc., priority 2009, dated 2014).
Structures can show the parent of a compound that is named as a salt.

Assays:
Format in all cases: cell-based
Details in all cases: unit assumed
[1] = tested on: Pseudomonas aeruginosa UI-18: Wild-type (PA-7); assay: MIC determination (CLSI), strain PA-7
Outline: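 MIC determined by broth dilution per CLSI M7-A7 guidelines with M100-S18 interpretive standards. Test organism: wild-type Pseudomonas aeruginosa UI-18, designated PA-7.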

[2] = tested on: Escherichia coli EC-1: VOGEL, mouse virulent; assay: MIC determination (CLSI), strain EC-1
Outline: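 The mouse-virulent VOGEL isolate of E. coli, EC-1, served as test organism. Minimum inhibitory concentration was measured by CLSI dilution methodology (M7-A7; M100-S18 standards).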

[3] = tested on: Acinetobacter baumanii/haemolyticus: Multidrug-resistant clinical isolate (AB-3167); assay: MIC determination (CLSI), strain AB-3167
Protocol: The in vitro antibacterial activity of compounds described in the Examples was evaluated by minimum inhibitory concentration (MIC) testing according to Clinical and Laboratory Standards Institute (CLSI, formerly NCCLS) guidelines. See: Clinical and Laboratory Standards Institute. Methods for Dilution Antimicrobial Susceptibility Tests for Bacteria that Grow Aerobically; Approved Standard-Seventh Edition. CLSI document M7-A7 [ISBN 1-56238-587-9]. Clinical and Laboratory Standards Institute, 940 West Valley Road, Suite 1400, Wayne, Pa. 19087-1898 USA, 2006; also Clinical and Laboratory Standards Institute. Performance Standards for Antimicrobial Susceptibility Testing; Eighteenth Informational Supplement. CLSI document M100-S18 [ISBN1-56238-653-0].Clinical and Laboratory Standards Institute.
The following bacterial strains were used in these MIC determinations:
2) Acinetobacter baumanii/haemolyticus: Multidrug-resistant clinical isolate labeled as AB-3167 in Tables 4 and 5;

[4] = Pseudomonas aeruginosa UI-18, wild-type
[5] = Escherichia coli EC-1, VOGEL, mouse virulent
[6] = strain PA-7, generated in the same manner as in Table 4
[7] = strain EC-1, generated in the same manner as in Table 4

## Cc1c(-c2ccc(-n3nccn3)cc2)ccn(CC[C@](C)(C(=O)NO)S(C)(=O)=O)c1=O [Example 68-J, (2R)-N-hydroxy-2-methyl-4-{3-methyl-2-oxo-4-[4-(2H-1,2,3-triazol-2-yl)phenyl]pyridin-1(2H)-yl}-2-(methylsulfonyl)butanamide]
[1]; [4]
  PA-7 (MIC): 1 µg/mL
[2]; [5]
  EC-1 (MIC): 0.125 µg/mL
[3]
  AB-3167 (MIC): > 64 µg/mL

## C[C@@](CCn1ccc(-c2ccc(OC3CCC(O)CC3)cc2)cc1=O)(C(=O)NO)S(C)(=O)=O (stereo partly drawn) [Example 7, (2R)-N-hydroxy-4-[4-{4-[(4-hydroxycyclohexyl)oxy]phenyl}-2-oxopyridin-1(2H)-yl]-2-methyl-2-(methylsulfonyl)butanamide]
[1]; [4]
  PA-7 (MIC): 2 µg/mL
[2]; [5]
  EC-1 (MIC): 1 µg/mL
[3]
  AB-3167 (MIC): 64 µg/mL

## C[C@@](CCn1ccc(CCc2ccccc2)cc1=O)(C(=O)NO)S(C)(=O)=O [Example 3, (2R)-N-hydroxy-2-methyl-2-(methylsulfonyl)-4-[2-oxo-4-(2-phenylethyl)pyridin-1(2H)-yl]butanamide]
[1]; [4]
  PA-7 (MIC): 4 µg/mL
[2]; [5]
  EC-1 (MIC): 1 µg/mL
[3]
  AB-3167 (MIC): 64 µg/mL

## C[C@@](CCn1ccc(-c2ccc(Cl)cc2F)cc1=O)(C(=O)NO)S(C)(=O)=O [Example 20, (2R)-4-[4-(4-chloro-2-fluorophenyl)-2-oxopyridin-1(2H)-yl]-N-hydroxy-2-methyl-2-(methylsulfonyl)butanamide]
[1]; [4]
  PA-7 (MIC): 0.25 µg/mL
[2]; [5]
  EC-1 (MIC): 0.25 µg/mL
[3]
  AB-3167 (MIC): > 64 µg/mL

## CC(CCn1ccc(-c2ccc(-c3ccncc3)cc2)cc1=O)(C(=O)NO)S(C)(=O)=O (racemic) [Example 35, N-Hydroxy-2-methyl-2-(methylsulfonyl)-4-[2-oxo-4-(4-pyridin-4-ylphenyl)pyridin-1(2H)-yl]butanamide]
[1]; [4]
  PA-7 (MIC): 2 µg/mL
[2]; [5]
  EC-1 (MIC): 0.5 µg/mL
[3]
  AB-3167 (MIC): > 64 µg/mL

## CC(CCn1ccc(-c2ccc(OCCCN3CCC(F)(F)CC3)cc2)cc1=O)(C(=O)NO)S(C)(=O)=O (racemic) [Example 4, (+/−)-4-[4-{4-[3-(4,4-Difluoropiperidin-1-yl)propoxy]phenyl}-2-oxopyridin-1(2H)-yl]-N-hydroxy-2-methyl-2-(methylsulfonyl)butanamide hydrochloride]
[1]; [4]
  PA-7 (MIC): 4 µg/mL
[2]; [5]
  EC-1 (MIC): 1 µg/mL
[3]
  AB-3167 (MIC): > 64 µg/mL

## CC(C)(O)C(O)CCOc1ccc(-c2ccn(CC[C@](C)(C(=O)NO)S(C)(=O)=O)c(=O)c2)cc1 (stereo partly drawn) [Example 10-K, (2R)-4-[4-{4-[(3,4-dihydroxy-4-methylpentyl)oxy]phenyl}-2-oxopyridin-1(2H)-yl]-N-hydroxy-2-methyl-2-(methylsulfonyl)butanamide]
[1]; [4]
  PA-7 (MIC): 8 µg/mL
[2]; [5]
  EC-1 (MIC): 8 µg/mL
[3]
  AB-3167 (MIC): > 64 µg/mL

## CO/N=C(\C)c1ccc(-c2ccn(CCC(C)(C(=O)NO)S(C)(=O)=O)c(=O)c2)cc1 (stereo not shown) [Example 62, N-Hydroxy-4-[4-{4-[(1E)-N-methoxyethanimidoyl]phenyl}-2-oxopyridin-1(2H)-yl]-2-methyl-2-(methylsulfonyl)butanamide]
[1]; [4]
  PA-7 (MIC): 4 µg/mL
[2]; [5]
  EC-1 (MIC): 0.5 µg/mL
[3]
  AB-3167 (MIC): > 64 µg/mL

## CC(CCn1ccc(-c2ccc3cc(O)ccc3c2)cc1=O)(C(=O)NO)S(C)(=O)=O (stereo not shown) [Example 258, N-hydroxy-4-[4-(6-hydroxy-2-naphthyl)-2-oxopyridin-1(2H)-yl]-2-methyl-2-(methylsulfonyl)butanamide]
[1]; strain PA-7
  PA-7 (MIC): 2 µg/mL
[2]; strain EC-1
  EC-1 (MIC): 1 µg/mL

## C[C@@](CCn1ccc(-c2ccc(-c3ncno3)cc2)cc1=O)(C(=O)NO)S(C)(=O)=O [Example 417, (2R)-N-hydroxy-2-methyl-2-(methylsulfonyl)-4-{4-[4-(1,2,4-oxadiazol-5-yl)phenyl]-2-oxopyridin-1(2H)-yl}butanamide]
[1]; strain PA-7
  PA-7 (MIC): 64 µg/mL
[2]; strain EC-1
  EC-1 (MIC): 8 µg/mL

## CCOc1ccc(-c2ccn(CCC(C)(C(=O)NO)S(C)(=O)=O)c(=O)c2)cc1F (stereo not shown) [Example 184, 4-[4-(4-ethoxy-3-fluorophenyl)-2-oxopyridin-1(2H)-yl]-N-hydroxy-2-methyl-2-(methylsulfonyl)butanamide]
[1]; strain PA-7
  PA-7 (MIC): 2 µg/mL
[2]; strain EC-1
  EC-1 (MIC): 0.5 µg/mL

## COc1cccc(-c2ccn(CCC(C)(C(=O)NO)S(C)(=O)=O)c(=O)c2)c1 (stereo not shown) [Example 206, N-hydroxy-4-[4-(3-methoxyphenyl)-2-oxopyridin-1(2H)-yl]-2-methyl-2-(methylsulfonyl)butanamide]
[1]; strain PA-7
  PA-7 (MIC): 4 µg/mL
[2]; strain EC-1
  EC-1 (MIC): 4 µg/mL

## C[C@@](CCn1ccc(-c2ccc(Oc3cc(Cl)ccn3)cc2)cc1=O)(C(=O)NO)S(C)(=O)=O [Example 428, (2R)-4-[4-{4-[(4-chloropyridin-2-yl)oxy]phenyl}-2-oxopyridin-1(2H)-yl]-N-hydroxy-2-methyl-2-(methylsulfonyl)butanamide]
[1]; strain PA-7
  PA-7 (MIC): 1 µg/mL
[2]; strain EC-1
  EC-1 (MIC): 0.125 µg/mL

## Cn1ccnc1-c1ccc(-c2ccn(CC[C@](C)(C(=O)NO)S(C)(=O)=O)c(=O)c2)cc1 [Example 363, (2R)-N-hydroxy-2-methyl-4-{4-[4-(1-methyl-1H-imidazol-2-yl)phenyl]-2-oxopyridin-1(2H)-yl}-2-(methylsulfonyl)butanamide]
[1]; strain PA-7
  PA-7 (MIC): 64 µg/mL
[2]; strain EC-1
  EC-1 (MIC): 32 µg/mL

## C[C@@](CCn1ccc(-c2c(F)cccc2F)cc1=O)(C(=O)NO)S(C)(=O)=O [Example 353]
[1]; strain PA-7
  PA-7 (MIC): 1 µg/mL
[2]; strain EC-1
  EC-1 (MIC): 4 µg/mL

## C[C@@](CCn1ccc(-c2ccc(Oc3ccc(Cl)cn3)cc2)cc1=O)(C(=O)NO)S(C)(=O)=O [Example 430, (2R)-4-[4-{4-[(5-chloropyridin-2-yl)oxy]phenyl}-2-oxopyridin-1(2H)-yl]-N-hydroxy-2-methyl-2-(methylsulfonyl)butanamide]
[1]; strain PA-7
  PA-7 (MIC): 2 µg/mL
[2]; strain EC-1
  EC-1 (MIC): 0.125 µg/mL

## CC(CCn1ccc(-c2ccc(Oc3ccccc3)cc2)cc1=O)(C(=O)NO)S(C)(=O)=O (stereo not shown) [Example 156, N-hydroxy-2-methyl-2-(methylsulfonyl)-4-[2-oxo-4-(4-phenoxyphenyl)pyridin-1(2H)-yl]butanamide]
[1]; [6]
  PA-7 (MIC): 4 µg/mL
[2]; [7]
  EC-1 (MIC): < 0.06 µg/mL

## CC(CCn1ccc(-c2ccc(CO)cc2)cc1=O)(C(=O)NO)S(C)(=O)=O (stereo not shown) [Example 72, N-hydroxy-4-{4-[4-(hydroxymethyl)phenyl]-2-oxopyridin-1(2H)-yl}-2-methyl-2-(methylsulfonyl)butanamide]
[1]; [6]
  PA-7 (MIC): 16 µg/mL
[2]; [7]
  EC-1 (MIC): > 64 µg/mL

## CC(CCn1ccc(-c2ccc3cc[nH]c3c2)cc1=O)(C(=O)NO)S(C)(=O)=O (stereo not shown) [Example 176, N-hydroxy-4-[4-(1H-indol-6-yl)-2-oxopyridin-1(2H)-yl]-2-methyl-2-(methylsulfonyl)butanamide]
[1]; [6]
  PA-7 (MIC): 4 µg/mL
[2]; [7]
  EC-1 (MIC): 8 µg/mL

## Cc1cc(-c2ccccc2)cc(=O)n1CCC(C)(C(=O)NO)S(C)(=O)=O (stereo not shown) [Example 220, N-hydroxy-2-methyl-4-(6-methyl-2-oxo-4-phenylpyridin-1(2H)-yl)-2-(methylsulfonyl)butanamide]
[1]; strain PA-7
  PA-7 (MIC): > 64 µg/mL
[2]; strain EC-1
  EC-1 (MIC): > 64 µg/mL

## C[C@@](CCn1ccc(-c2ccc(-n3cncn3)cc2)cc1=O)(C(=O)NO)S(C)(=O)=O [Example 371, (2R)-N-hydroxy-2-methyl-2-(methylsulfonyl)-4-{2-oxo-4-[4-(1H-1,2,4-triazol-1-yl)phenyl]pyridin-1(2H)-yl}butanamide]
[1]; strain PA-7
  PA-7 (MIC): 8 µg/mL
[2]; strain EC-1
  EC-1 (MIC): 32 µg/mL

## Cc1cc(-n2nccn2)ccc1-c1ccn(CC[C@](C)(C(=O)NO)S(C)(=O)=O)c(=O)c1 [Example 358, (2R)-N-hydroxy-2-methyl-2-(methylsulfonyl)-4-{4-[2-methyl-4-(2H-1,2,3-triazol-2-yl)phenyl]-2-oxopyridin-1(2H)-yl}butanamide]
[1]; strain PA-7
  PA-7 (MIC): 1 µg/mL
[2]; strain EC-1
  EC-1 (MIC): 0.25 µg/mL

## C[C@@](CCn1ccc(-c2ccc(OCCCCCO)cc2)cc1=O)(C(=O)NO)S(C)(=O)=O [Example 280, (2R)-N-hydroxy-4-[4-{4-[(5-hydroxypentyl)oxy]phenyl}-2-oxopyridin-1(2H)-yl]-2-methyl-2-(methylsulfonyl)butanamide]
[1]; strain PA-7
  PA-7 (MIC): 0.5 µg/mL
[2]; strain EC-1
  EC-1 (MIC): 0.25 µg/mL

## Cc1cc(-c2ccn(CCC(C)(C(=O)NO)S(C)(=O)=O)c(=O)c2)ccc1OCCCO (stereo not shown) [Example 248, N-hydroxy-4-{4-[4-(3-hydroxypropoxy)-3-methylphenyl]-2-oxopyridin-1(2H)-yl}-2-methyl-2-(methylsulfonyl)butanamide]
[1]; strain PA-7
  PA-7 (MIC): 4 µg/mL
[2]; strain EC-1
  EC-1 (MIC): 2 µg/mL

## CCCC(CCn1ccc(-c2ccccc2)cc1=O)(C(=O)NO)S(C)(=O)=O (stereo not shown) [Example 294]
[1]; strain PA-7
  PA-7 (MIC): > 64 µg/mL
[2]; strain EC-1
  EC-1 (MIC): > 64 µg/mL

## CC(CCn1ccc(-c2ccc(OCCN3CCOCC3)cc2)cc1=O)(C(=O)NO)S(C)(=O)=O (stereo not shown) [Example 94]
[1]; [6]
  PA-7 (MIC): 4 µg/mL
[2]; [7]
  EC-1 (MIC): 2 µg/mL

## Cc1ccc(-c2ccc(-c3ccn(CC[C@](C)(C(=O)NO)S(C)(=O)=O)c(=O)c3)cc2)cn1 [Example 456, (2R)-N-hydroxy-2-methyl-4-{4-[4-(6-methylpyridin-3-yl)phenyl]-2-oxopyridin-1(2H)-yl}-2-(methylsulfonyl)butanamide]
[1]; strain PA-7
  PA-7 (MIC): 1 µg/mL
[2]; strain EC-1
  EC-1 (MIC): 0.25 µg/mL

## CC(CCn1ccc(-c2cccc(Cl)c2Cl)cc1=O)(C(=O)NO)S(C)(=O)=O (stereo not shown) [Example 163, 4-[4-(2,3-dichlorophenyl)-2-oxopyridin-1(2H)-yl]-N-hydroxy-2-methyl-2-(methylsulfonyl)butanamide]
[1]; [6]
  PA-7 (MIC): 1 µg/mL
[2]; [7]
  EC-1 (MIC): 0.5 µg/mL
